Measurements reported in patent US6579886B2, “Selective iglur5 receptor antagonists” (Eli Lilly and Company, priority 1999, dated 2003).
Where a name gives a salt, the structure may show the parent alone.

Tests used:
[1] = tested on: neurogenic dural protein extravasation; assay: Animal model of dural protein extravasation (trigeminal ganglion stimulation, Evans Blue); assay type: in vivo, rats or guinea pigs; conditions: given orally; approximated from dose-response curve
Protocol: Methods, 81(1,2) 19-24 (1998). For example, the following animal model is employed to determine the ability of each of the compounds of formula I to inhibit protein extravasation, an exemplary functional assay of the neuronal mechanism of migraine.
Harlan Sprague-Dawley rats (225-325 g) or guinea pigs from Charles River Laboratories (225-325 g) are anesthetized with sodium pentobarbital intraperitoneally (65 mg/kg or 45 mg/kg respectively) and placed in a stereotaxic frame (David Kopf Instruments) with the incisor bar set at −3.5 mm for rats or −4.0 mm for guinea pigs. Following a midline sagital scalp incision, two pairs of bilateral holes are drilled through the skull (6 mm posterially, 2.0 and 4.0 mm laterally in rats; 4 mm posteriorly and 3.2 and 5.2 mm laterally in guinea pigs, all coordinates referenced to bregma). […]
A fluorescence microscope (Zeiss) equipped with a grating monchromator and a spectrophotometer is used to quantify the amount of Evans Blue dye in each sample. An excitation wavelength of approximately 535 nm is utilized and the emission intensity at 600 nm was determined. […] This facilitates the computer-controlled movement of the stage with fluorescence measurements at 25 points ([…]) on each dural sample. The mean and standard deviation of the measurements are determined by the computer. […]

[2] = biological target: T1, iGluR5 receptor (relative to iGluR2 AMPA receptor subtype) (Homo sapiens, UniProt P39086); assay: iGluR5 antagonist binding affinity profile: displacement of 3[H] kainate (iGluR5) versus 3[H] AMPA (iGluR2) in stably transfected HEK293 cells; conditions: HEK293 cells stably transfected with human iGluR receptors; 3[H] kainate vs 3[H] AMPA displacement
T1 construct: expressed in transfected cells; host or cells: HEK293 cells, stably transfected
Excerpt: To establish that the iGluR5 receptor subtype is mediating neurogenic protein extravasation, a functional characteristic of migraine, the binding affinity of the compounds of formula I to the iGluR5 receptor is first measured using standard methods. For example, the activity of compounds acting at the iGluR5 receptor can be determined by radiolabelled ligand binding studies at the cloned and expressed human iGluR5 receptor (Korczak et al., 1994, Recept. Channels 3; 41-49), and by whole cell voltage clamp electrophysiological recordings of currents in acutely isolated rat dorsal root ganglion neurons (Bleakman et al., 1996, Mol. Pharmacol. 49; 581-585). The selectivity of compounds acting at the iGluR5 receptor subtype can then be determined by comparing antagonist activity at the iGluR5 receptor with antagonist activity at other AMPA and kainate receptors. […] AMPA by increasing concentrations of antagonist is measured on iGluR1, iGluR2, iGluR3, and iGluR4 expressing cells, while displacement of ^3[H] kainate (KA) is measured on iGluR5, iGluR6, iGluR7, and KA2-expressing cells. As an indicia of selectivity, the ratio of binding affinity to the iGluR2 AMPA receptor subtype, versus the binding affinity to iGluR5 kainate receptor subtype, is also determined.

T1 sequence (P39086 31-918): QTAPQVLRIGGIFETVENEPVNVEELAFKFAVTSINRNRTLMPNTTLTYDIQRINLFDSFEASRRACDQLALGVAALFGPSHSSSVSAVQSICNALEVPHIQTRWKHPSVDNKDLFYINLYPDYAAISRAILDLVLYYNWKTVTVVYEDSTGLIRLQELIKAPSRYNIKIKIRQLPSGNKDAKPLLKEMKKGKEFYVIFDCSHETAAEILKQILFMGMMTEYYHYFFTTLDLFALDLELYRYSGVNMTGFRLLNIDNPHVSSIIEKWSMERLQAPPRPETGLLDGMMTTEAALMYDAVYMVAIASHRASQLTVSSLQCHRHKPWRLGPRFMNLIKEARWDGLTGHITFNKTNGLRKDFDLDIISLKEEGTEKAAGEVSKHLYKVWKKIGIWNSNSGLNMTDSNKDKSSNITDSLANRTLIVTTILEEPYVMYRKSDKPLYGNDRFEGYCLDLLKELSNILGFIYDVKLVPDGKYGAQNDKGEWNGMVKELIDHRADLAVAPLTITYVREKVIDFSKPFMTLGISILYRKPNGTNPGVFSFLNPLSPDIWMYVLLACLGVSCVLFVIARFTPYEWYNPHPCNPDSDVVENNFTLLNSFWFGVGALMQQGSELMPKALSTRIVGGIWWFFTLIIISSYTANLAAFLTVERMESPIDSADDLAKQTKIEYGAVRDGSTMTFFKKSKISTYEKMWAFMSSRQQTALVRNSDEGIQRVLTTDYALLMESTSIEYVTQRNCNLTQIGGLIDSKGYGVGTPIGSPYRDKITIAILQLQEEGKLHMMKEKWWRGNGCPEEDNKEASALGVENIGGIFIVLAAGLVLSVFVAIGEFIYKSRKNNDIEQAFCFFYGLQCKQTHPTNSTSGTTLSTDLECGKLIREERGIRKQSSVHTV

SMILES: CCOC(=O)c1cn(C[C@H]2CC[C@H]3CN[C@H](C(=O)OCC)C[C@H]3C2)cn1 [Example 3, [3S,4aR,6S,8aR]-Ethyl-6-((4-ethoxycarbonyl-1H-imidazol-1-yl)methyl)-1,2,3,4,4a,5,6,7,8,8a-decahydroisoquinoline-3-carboxylate]
- ID100 (dose that inhibits the extravasation by 100%) [1]: 0.0003 µg/kg

SMILES: O=C(O)[C@@H]1C[C@H]2C[C@@H](Cc3ccccc3-c3nnn[nH]3)CC[C@H]2CN1
- selectivity: ratio of binding affinity for the iGluR5 receptor over the iGluR2 receptor [2]: 5 fold

SMILES: CCOC(=O)c1ncn(C[C@H]2CC[C@H]3CN[C@H](C(=O)OCC)C[C@H]3C2)c1C(=O)OCC (as salt: hydrochloride) [Example 11, [3S 4aR,6S,8aR]-Ethyl 6-{[4,5-Bis(ethoxycarbonyl)-1H-imidazol-1-yl]methyl}1 2,3,4,4a,5,6,7,8,8a-decahydroisoquinoline-3-carboxylate Dihydrochloride]
- melting point: 99 to 101 °C
